Columns and labels:
Type in all cases: biochemical
Aurora A = target: T1, Aurora A (Homo sapiens, UniProt O14965); test: Aurora A counter screen; conditions: read-out: AUR-A (IC50)
T1 sequence (O14965 1-403): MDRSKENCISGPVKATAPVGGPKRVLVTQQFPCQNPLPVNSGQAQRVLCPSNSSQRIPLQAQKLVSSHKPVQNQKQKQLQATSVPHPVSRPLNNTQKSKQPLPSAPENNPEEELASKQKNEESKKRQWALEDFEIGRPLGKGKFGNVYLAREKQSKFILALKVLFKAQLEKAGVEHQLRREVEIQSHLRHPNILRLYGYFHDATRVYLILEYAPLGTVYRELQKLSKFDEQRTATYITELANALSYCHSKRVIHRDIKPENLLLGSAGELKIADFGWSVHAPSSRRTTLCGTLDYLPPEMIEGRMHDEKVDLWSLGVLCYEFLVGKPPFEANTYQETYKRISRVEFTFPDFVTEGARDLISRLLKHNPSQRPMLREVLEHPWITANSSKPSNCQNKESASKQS
Summary of the method: (§1)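 Radiometric assay with full-length recombinant NUAK2 in 8 mM MOPS pH 7.0, 0.2 mM EDTA, 10 mM magnesium acetate, 300 μM peptide substrate and [33P]-ATP, 40 min at room temperature. Phosphoric acid stop, filter capture, scintillation counting. Aurora A and NUAK1 used as counter screens.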

NUAK1 = target: T2, NUAK1 (Homo sapiens, UniProt O60285); test: NUAK1 counter screen
T2 sequence (O60285 1-661): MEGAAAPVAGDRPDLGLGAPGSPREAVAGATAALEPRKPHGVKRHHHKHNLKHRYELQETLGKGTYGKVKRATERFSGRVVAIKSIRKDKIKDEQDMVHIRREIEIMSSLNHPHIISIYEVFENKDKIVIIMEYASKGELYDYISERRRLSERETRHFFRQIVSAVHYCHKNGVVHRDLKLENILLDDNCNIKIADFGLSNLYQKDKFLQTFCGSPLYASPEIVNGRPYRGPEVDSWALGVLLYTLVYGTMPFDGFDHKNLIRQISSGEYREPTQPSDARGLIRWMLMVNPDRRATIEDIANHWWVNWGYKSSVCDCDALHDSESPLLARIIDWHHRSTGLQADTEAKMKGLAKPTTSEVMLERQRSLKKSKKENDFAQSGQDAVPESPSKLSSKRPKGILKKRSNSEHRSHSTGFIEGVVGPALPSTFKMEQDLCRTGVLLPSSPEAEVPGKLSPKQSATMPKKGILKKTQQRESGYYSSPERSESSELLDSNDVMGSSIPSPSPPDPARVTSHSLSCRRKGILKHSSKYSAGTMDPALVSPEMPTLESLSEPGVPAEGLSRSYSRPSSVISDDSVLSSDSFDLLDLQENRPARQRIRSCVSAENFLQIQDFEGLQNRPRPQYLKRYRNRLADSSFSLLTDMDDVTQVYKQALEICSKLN
Summary of the method: as §1

NUAK2 (h) = target: T3, NUAK2 (h) (Homo sapiens, UniProt Q9H093); test: NUAK2 enzymatic assay (radiometric, Eurofins); conditions: radiometric, full-length recombinant enzyme
T3 construct: This assay was done radiometrically using full-length, recombinant enzyme; purchased Eurofins
T3 sequence (Q9H093 1-628): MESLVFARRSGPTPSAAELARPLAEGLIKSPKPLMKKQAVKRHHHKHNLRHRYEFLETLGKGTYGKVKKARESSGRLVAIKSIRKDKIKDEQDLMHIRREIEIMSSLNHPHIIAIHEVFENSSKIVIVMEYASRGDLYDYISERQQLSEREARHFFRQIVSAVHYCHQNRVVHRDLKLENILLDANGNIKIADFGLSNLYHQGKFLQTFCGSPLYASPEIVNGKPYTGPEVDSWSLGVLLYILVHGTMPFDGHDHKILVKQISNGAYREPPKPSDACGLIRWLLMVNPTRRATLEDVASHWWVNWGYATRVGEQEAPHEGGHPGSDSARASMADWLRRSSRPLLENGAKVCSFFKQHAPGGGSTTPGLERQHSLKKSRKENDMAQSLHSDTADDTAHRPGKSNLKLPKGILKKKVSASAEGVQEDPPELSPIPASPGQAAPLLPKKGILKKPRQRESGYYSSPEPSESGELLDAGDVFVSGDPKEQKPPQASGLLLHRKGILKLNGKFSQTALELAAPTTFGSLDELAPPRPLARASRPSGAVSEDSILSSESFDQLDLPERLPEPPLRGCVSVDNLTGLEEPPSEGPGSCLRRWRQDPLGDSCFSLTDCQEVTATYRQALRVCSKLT
Summary of the method: as §1

| Compound | IC50 (Aurora A) | IC50 (NUAK1) | IC50 (NUAK2 (h)) |
| --- | --- | --- | --- |
| CN1CCN(c2ccc(Nc3ncc(Cl)c(N[C@@H]4CCC[C@@H]4C(N)=O)n3)c(C(F)(F)F)c2)CC1 [Compound I-84, (1S,2R)-2-((5-chloro-2-((4-(4-methylpiperazin-1-yl)-2-(trifluoromethyl)phenyl)amino)pyrimidin-4-yl)amino)cyclopentane-1-carboxamide] | > 1000 nM | 101 to 1000 nM | 11 to 100 nM |
| CC(C)(C)N1CCN(C2CCN(c3ccc(Nc4ncc(C(F)(F)F)c(Nc5ccsc5C(N)=O)n4)c(OC(F)F)c3)CC2)CC1 [Compound I-79, 3-((2-((4-(4-(4-(tert-butyl)piperazin-1-yl)piperidin-1-yl)-2-(difluoromethoxy)phenyl)amino)-5-(trifluoromethyl)pyrimidin-4-yl)amino)thiophene-2-carboxamide] | 101 to 1000 nM | 11 to 100 nM | 11 to 100 nM |
| NC(=O)c1ccsc1Nc1nc(Nc2ccc(N3CCN(CC(F)(F)F)CC3)cc2OC(F)F)ncc1Cl [Compound I-34, 2-((5-chloro-2-((2-(difluoromethoxy)-4-(4-(2,2,2-trifluoroethyl)piperazin-1-yl)phenyl)amino)pyrimidin-4-yl)amino)thiophene-3-carboxamide] | 101 to 1000 nM | 101 to 1000 nM | 101 to 1000 nM |
| CCN1CCN(c2ccc(Nc3ncc(Cl)c(Nc4ccsc4C(N)=O)n3)c(OC(F)F)c2)CC1 [Compound I-5, 3-((5-chloro-2-((2-(difluoromethoxy)-4-(4-ethylpiperazin-1-yl)phenyl)amino)pyrimidin-4-yl)amino)thiophene-2-carboxamide] | > 1000 nM | 11 to 100 nM | 11 to 100 nM |

Next, values leading:

| IC50 (Aurora A) | IC50 (NUAK1) | IC50 (NUAK2 (h)) | Compound |
| --- | --- | --- | --- |
| 101 to 1000 nM | 11 to 100 nM | 11 to 100 nM | C[C@@H]1CN(C2CCN(c3ccc(Nc4ncc(C(F)(F)F)c(Nc5ccsc5C(N)=O)n4)c(OC(F)F)c3)CC2)C[C@H](C)N1C [Compound I-67, 3-((2-((2-(difluoromethoxy)-4-(4-((3R,5S)-3,4,5-trimethylpiperazin-1-yl)piperidin-1-yl)phenyl)amino)-5-(trifluoromethyl)pyrimidin-4-yl)amino)thiophene-2-carboxamide] |
| 11 to 100 nM | 0.1 to 10 nM | 11 to 100 nM | CN(C)C1CCN(c2ccc(Nc3ncc(Cl)c(Nc4ccsc4C(N)=O)n3)c(OC(F)F)c2)CC1 [Compound I-47, 3-((5-chloro-2-((2-(difluoromethoxy)-4-(4-(dimethylamino)piperidin-1-yl)phenyl)amino)pyrimidin-4-yl)amino)thiophene-2-carboxamide] |
| 11 to 100 nM | 11 to 100 nM | 11 to 100 nM | C[C@H]1CN(C)CCN1C1CCN(c2ccc(Nc3ncc(Cl)c(Nc4ccsc4C(N)=O)n3)c(OC(F)F)c2)CC1 [Compound I-70, (S)-3-((5-chloro-2-((2-(difluoromethoxy)-4-(4-(2,4-dimethylpiperazin-1-yl)piperidin-1-yl)phenyl)amino)pyrimidin-4-yl)amino)thiophene-2-carboxamide] |
| 101 to 1000 nM | 0.1 to 10 nM | 0.1 to 10 nM | CN1C[C@@H]2CN(c3ccc(Nc4ncc(Cl)c(Nc5ccsc5C(N)=O)n4)c(OC(F)F)c3)C[C@@H]2C1 [Compound I-57, 3-((5-chloro-2-((2-(difluoromethoxy)-4-((3aR,6aS)-5-methylhexahydropyrrolo[3,4-c]pyrrol-2(1H)-yl)phenyl)amino)pyrimidin-4-yl)amino)thiophene-2-carboxamide] |
| 101 to 1000 nM | 11 to 100 nM | 11 to 100 nM | CN1CCC(c2ccc(Nc3ncc(Cl)c(Nc4ccsc4C(N)=O)n3)c(OC(F)F)c2)CC1 [Compound I-25, 3-((5-chloro-2-((2-(difluoromethoxy)-4-(1-methylpiperidin-4-yl)phenyl)amino)pyrimidin-4-yl)amino)thiophene-2-carboxamide] |

From patent US20240025887A1, “THIENYL AND CYCLOALKYL AMINOPYRIMIDINE COMPOUNDS AS INHIBITORS OF NUAK KINASES, COMPOSITIONS AND USES THEREOF” (Ontario Institute for Cancer Research (OICR), priority 2021, published 2024)
